Measured values from patent US4356183A, “Antihypertensive 4-thiazolidinecarboxylic acids (pyridyl derivatives)” (Santen Pharmaceutical Co., Ltd., priority 1978, dated 1982).

How the values were obtained:
[1] = biological target: T1, angiotensin I-converting enzyme (Oryctolagus cuniculus, UniProt P12822); assay: Inhibition of angiotensin I-converting enzyme by spectrophotometry (HHL substrate); format: biochemical; conditions: enzyme from rabbit lung; 5 mM HHL; pH 8.3; 37° C., 30 min
T1 construct: angiotensin I-converting enzyme extracted from rabbit lung; from tissue; host or cells: rabbit lung
T1 sequence (P12822 34-1310): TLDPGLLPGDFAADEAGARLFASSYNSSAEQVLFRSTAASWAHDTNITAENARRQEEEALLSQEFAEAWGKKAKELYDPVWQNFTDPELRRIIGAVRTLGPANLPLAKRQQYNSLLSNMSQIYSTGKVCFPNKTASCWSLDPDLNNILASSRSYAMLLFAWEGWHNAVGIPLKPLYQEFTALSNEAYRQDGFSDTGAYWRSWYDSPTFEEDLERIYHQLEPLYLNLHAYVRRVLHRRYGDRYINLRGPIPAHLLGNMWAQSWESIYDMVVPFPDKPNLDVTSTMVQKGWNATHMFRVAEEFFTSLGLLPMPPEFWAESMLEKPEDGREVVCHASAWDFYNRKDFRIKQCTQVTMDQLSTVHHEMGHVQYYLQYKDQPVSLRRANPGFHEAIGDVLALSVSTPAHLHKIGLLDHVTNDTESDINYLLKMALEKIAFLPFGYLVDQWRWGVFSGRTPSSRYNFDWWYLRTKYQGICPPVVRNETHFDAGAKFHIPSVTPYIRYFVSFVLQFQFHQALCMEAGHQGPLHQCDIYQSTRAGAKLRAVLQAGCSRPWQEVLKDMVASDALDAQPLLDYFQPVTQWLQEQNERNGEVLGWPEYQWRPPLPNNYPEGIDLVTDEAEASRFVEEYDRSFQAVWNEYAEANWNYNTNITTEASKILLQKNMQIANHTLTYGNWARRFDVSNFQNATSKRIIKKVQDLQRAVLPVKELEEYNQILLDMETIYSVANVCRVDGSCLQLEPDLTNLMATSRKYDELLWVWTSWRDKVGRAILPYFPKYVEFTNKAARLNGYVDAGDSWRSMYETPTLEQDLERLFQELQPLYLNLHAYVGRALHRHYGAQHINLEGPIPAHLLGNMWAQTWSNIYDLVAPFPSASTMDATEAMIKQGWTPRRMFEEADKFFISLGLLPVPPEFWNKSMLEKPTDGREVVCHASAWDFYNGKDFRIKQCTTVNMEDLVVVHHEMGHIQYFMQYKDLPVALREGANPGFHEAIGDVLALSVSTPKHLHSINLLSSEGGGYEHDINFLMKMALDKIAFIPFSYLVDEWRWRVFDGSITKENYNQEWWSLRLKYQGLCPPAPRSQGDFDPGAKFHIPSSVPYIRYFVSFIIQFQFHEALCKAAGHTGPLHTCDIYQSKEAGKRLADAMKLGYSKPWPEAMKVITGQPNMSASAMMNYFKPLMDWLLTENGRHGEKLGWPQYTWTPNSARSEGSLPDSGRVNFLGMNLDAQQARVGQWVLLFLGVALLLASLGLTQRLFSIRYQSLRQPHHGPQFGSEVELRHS

[2] = system: pressor response to angiotensin I; assay: Inhibition of pressor response to angiotensin I in rats after oral administration; format: in vivo, rat (male Wistar); conditions: angiotensin I 300 ng/kg i.v.; for Inhibition (%) of pressor response to angiotensin I, 5 min / Inhibition (%) of pressor response to angiotensin I, 15 min / Inhibition (%) of pressor response to angiotensin I, 25 min / Inhibition (%) of pressor response to angiotensin I, 35 min / Inhibition (%) of pressor response to angiotensin I, 45 min / Inhibition (%) of pressor response to angiotensin I, 55 min / Inhibition (%) of pressor response to angiotensin I, 65 min / Inhibition (%) of pressor response to angiotensin I, 75 min / Inhibition (%) of pressor response to angiotensin I, 85 min: dose: 3, 45, 49 1.8 mg/kg, 4, 46 1.3, 50 1.4, 76 2.0, 77 1.5; for Inhibition (%) of pressor response to angiotensin I, 95 min: dose: 45, 49 1.8 mg/kg, 4, 46 1.3, 50 1.4, 76 2.0, 77 1.5; for Inhibition (%) of pressor response to angiotensin I, 105 min / Inhibition (%) of pressor response to angiotensin I, 115 min: dose: 45, 49 1.8 mg/kg, 46 1.3, 50 1.4, 76 2.0, 77 1.5
Experimental: Male Wistar strain rats weighing about 200-300 g were used.
Under ether anesthesia, polyethylene cannulae are inserted into carotid arthery and jugular vein. The cannula to carotid artery is connected to an electric transducer, while the cannula to jugular vein is connected to an apparatus for continuous infusion. After the complete recovery from anesthesia, angiotensin I is infused intravenously in a dose of 300 ng/kg by the apparatus for continuous infusion, and the pressor response is recorded by polygraph (Nihon Koden, RM-150).
The compounds of this invention suspended in 0.5% tragacanth solution are administered orally in a dose of 0.3 ml per 100 g of body weight, and the pressor response to angiotensin I infused intravenously is measured with time.
The inhibitory activity of the compounds against angiotensin I-converting enzyme is expressed as the percent inhibition of pressor response to angiotensin I.

[3] = system: contractile response to bradykinin (isolated guinea pig ileum); assay: Augmentation of contractile response of isolated guinea pig ileum to bradykinin; format: cell-based; conditions: Cavia porcellus, bradykinin 0.005 μg/ml; compound added 5 min before; 30° C.; read-out: Bradykinin AC50 (50% augmentation of bradykinin activity inducing the contraction of guinea pig ileum)

| SMILES | IC50 [1] | Inhibition (%) of pressor response to angiotensin I, 5 min [2] | Inhibition (%) of pressor response to angiotensin I, 15 min [2] | Inhibition (%) of pressor response to angiotensin I, 25 min [2] | Inhibition (%) of pressor response to angiotensin I, 35 min [2] | Inhibition (%) of pressor response to angiotensin I, 45 min [2] | Inhibition (%) of pressor response to angiotensin I, 55 min [2] | Inhibition (%) of pressor response to angiotensin I, 65 min [2] | Inhibition (%) of pressor response to angiotensin I, 75 min [2] | Inhibition (%) of pressor response to angiotensin I, 85 min [2] | Inhibition (%) of pressor response to angiotensin I, 95 min [2] | Inhibition (%) of pressor response to angiotensin I, 105 min [2] | Inhibition (%) of pressor response to angiotensin I, 115 min [2] | AC50 [3] |
| --- | --- | --- | --- | --- | --- | --- | --- | --- | --- | --- | --- | --- | --- | --- |
| C[C@H](CS)C(=O)N1C(c2ccccc2O)SC[C@H]1C(=O)O (stereo partly shown) [Compound 50] | 0.22 µM | 11.1% | 22.7% | 37.6% | 43.9% | 52.6% | 31.7% | 28.1% | 30.5% | 24.3% | 21.1% | 21.7% | 21.5% | 0.0007 µM |
| COc1ccc(C2SC[C@@H](C(=O)O)N2C(=O)[C@H](C)CS)c(O)c1 (stereo partly shown) [Compound 77] | 0.19 µM | 35.0% | 45.0% | 54.2% | 50.8% | 57.2% | 49.2% | 47.8% | 34.8% | 31.7% | 24.2% | 18.7% | 6.7% | 0.0013 µM |
